Here are results for one compound from US20060154984A1, “Therapeutic use of acyl glycerols and the nitrogen- and sulphur- containing analogues thereof” (priority 2003, published 2006).

A short description of assay [1]: Plasma lipids in Sprague Dawley rats according to the formulation used. In kind it is in vivo, rat. The note with it: gavage every day for 15 days, with Cremophor RH40 compared with CMC and Solutol HS15. As to the method:
A 0.5% (mN) solution of CMC was prepared in water and mixed with 0.1% (VN) Tween 80, then stirred overnight. The inventive compounds were then added and dissolved by stirring and ultrasonication for 30 minutes at 60° C.
The emulsion comprising an inventive compound and a surfactant, Cremophor® RH40 (Polyoxyl 40 Hydrogenated Castor Oil) or Solutol® HS15 (polyethylene glycol 660 12-hydroxystearate) was prepared as follows: the inventive compound was dissolved in a solution of Cremophor® RH40 or Solutol® HS15 previously heated in a water-bath at 60° C. in a ratio for example of 6:1 (m/m). The mixture was placed in a water-bath at 60° C. until a homogeneous mixture was obtained. Said mixture was then dispersed by ultrasonication for 20 minutes at 60° C., at which time the solution became translucid. While stirring, water (MilliQ) preheated at 60° C. was added to the solution to give the desired concentration of the compound. The solution was then mixed on a Vortex® mixer, returned to the water-bath (60° C.) and optionally dispersed by ultrasonication for 30 minutes.
To this end, the compounds were administered by gavage to Sprague Dawley rats every day for 15 days. […]

The subject of assay [2] is dopaminergic neurons. Nature of the assay: Rat model of Parkinson's disease (6-OHDA), immunohistochemistry with anti-TH antibody. In kind it is in vivo. As to conditions: Wistar rats, 300 mg/kg per day in diet, 6-OHDA lesion; versus rats fed a normal diet. On the procedure:
Adult male Wistar rats (280-300 g) were maintained on a 12-hour light/dark cycle at a constant temperature of 20±3° C. Animals had access to food and water ad libitum and weight gain was recorded.
Animals were fed a normal diet or a diet supplemented with the inventive compounds (300 mg/kg per day) for 7 days before induction of the dopaminergic lesion and for 15 days after induction of same.
Seven days after commencement of treatment with the inventive compounds, the rats were stereotactically injected with 6-OHDA (4 μg for 8 min) or buffer (sham rats) in the left part of the median tract of the telencephalon to induce striatonigral denervation.
Tyrosine hydroxylase (TH) is an enzyme which catalyzes the transformation of tyrosine to […]. It is used to label dopaminergic neurons. After the apomorphine sensitization test, the animals were sacrificed and the brains were removed. Brain slices were incubated with anti-TH antibody (SCBT, Santa Cruz, Calif.) and then with a second biotinylated antibody. Visualization was with the ABC staining system kit (Tebu) according to the supplier's instructions.
Viable cells labelled with anti-TH antibody (TH+ cells) were counted. […]

The structures appear in SMILES notation.

With `CCCCCCCCCCCCCCSCC(=O)OCC(COC(=O)CSCCCCCCCCCCCCCC)OC(=O)CSCCCCCCCCCCCCCC` [Ex 4a, 1,2,3-tritetradecylthioacetylglycerol], in assay [1], the plasma triglycerides result was “larger decrease” and the total plasma cholesterol result is recorded as “larger decrease”. Also, the “number of neurons labelled with anti-tyrosine hydroxylase (TH+ neurons)” value in assay [2] is listed as “greater number of neurons”.
